Reference: article PMC5605198, “MELK is not necessary for the proliferation of basal-like breast cancer cells” (eLife, 2017)
Read-outs that look alike come from different tables or passages of the source.

Assays:
[1] = target: mTOR (Homo sapiens, UniProt P42345); assay: Z’-LYTE enzymatic assay; settings: Z’-LYTE assay at [ATP]=apparent Km; read-out: Biochemical IC50 mTOR
[2] = tested on: panel of breast cancer cell lines; assay: 3-day proliferation assays, panel summary; format: cell-based
Excerpt: As shRNA-mediated knockdown of MELK was previously reported to inhibit the proliferation of BBC cells, we next tested whether pharmacological inhibition of MELK would have similar effects. We treated a panel of breast cancer cell lines, including MDA-MB-468 and ZR-75-1 cells, with HTH-01-091 and other MELK inhibitors; despite our focus on basal-like breast cancers, we included luminal cell lines for comparison. […] We evaluated the inhibitors in longer-term (7-day) proliferation assays and still observed the same trend, and no clear difference between the breast cancer subtypes (Table 4). We authenticated our MDA-MB-468 line by short tandem repeat analysis, and repeated the proliferation assays using MDA-MB-468 cells from a second source to confirm the modest antiproliferative effects of the selective inhibitors (Table 4).

[3] = target: MKK1 (Homo sapiens, UniProt Q02750); assay: ICKP radiometric kinase assay; format: biochemical; settings: read-out: % AR (% kinase activity remaining)
[4] = target: MKK2 (Homo sapiens, UniProt P36507); assay: ICKP radiometric kinase assay; format: biochemical; settings: read-out: % AR (% kinase activity remaining)
[5] = target: ERK2 (Homo sapiens, UniProt P28482); assay: ICKP radiometric kinase assay; format: biochemical; settings: read-out: % AR (% kinase activity remaining)
[6] = target: PKB alpha (Homo sapiens, UniProt P31749); assay: ICKP radiometric kinase assay; format: biochemical; settings: read-out: % AR (% kinase activity remaining)
[7] = target: PKC alpha (Homo sapiens, UniProt P17252); assay: ICKP radiometric kinase assay; format: biochemical; settings: read-out: % AR (% kinase activity remaining)
[8] = target: PKC gamma (Homo sapiens, UniProt P05129); assay: ICKP radiometric kinase assay; format: biochemical; settings: read-out: % AR (% kinase activity remaining)
[9] = target: PKC zeta (Homo sapiens, UniProt Q05513); assay: ICKP radiometric kinase assay; format: biochemical; settings: read-out: % AR (% kinase activity remaining)
[10] = target: CAMKK beta (Homo sapiens, UniProt Q96RR4); assay: ICKP radiometric kinase assay; format: biochemical; settings: read-out: % AR (% kinase activity remaining)
[11] = target: Aurora B (Homo sapiens, UniProt Q96GD4); assay: ICKP radiometric kinase assay; format: biochemical; settings: read-out: % AR (% kinase activity remaining)
[12] = target: BRSK2 (Homo sapiens, UniProt Q8IWQ3); assay: ICKP radiometric kinase assay; format: biochemical; settings: read-out: % AR (% kinase activity remaining)
[13] = target: SIK2 (Homo sapiens, UniProt Q9H0K1); assay: ICKP radiometric kinase assay; format: biochemical; settings: read-out: % AR (% kinase activity remaining)
[14] = target: CK1 delta (Homo sapiens, UniProt P48730); assay: ICKP radiometric kinase assay; format: biochemical; settings: read-out: % AR (% kinase activity remaining)
[15] = target: TTBK1 (Homo sapiens, UniProt Q5TCY1); assay: ICKP radiometric kinase assay; format: biochemical; settings: read-out: % AR (% kinase activity remaining)
[16] = target: TTBK2 (Homo sapiens, UniProt Q6IQ55); assay: ICKP radiometric kinase assay; format: biochemical; settings: read-out: % AR (% kinase activity remaining)
[17] = target: DYRK2 (Homo sapiens, UniProt Q92630); assay: ICKP radiometric kinase assay; format: biochemical; settings: read-out: % AR (% kinase activity remaining)
[18] = target: T1, DYRK3 (Homo sapiens, UniProt O43781); assay: ICKP radiometric kinase assay; format: biochemical; settings: for remaining activity at 1 µM: read-out: % AR (% kinase activity remaining)
T1 sequence (O43781 1-588): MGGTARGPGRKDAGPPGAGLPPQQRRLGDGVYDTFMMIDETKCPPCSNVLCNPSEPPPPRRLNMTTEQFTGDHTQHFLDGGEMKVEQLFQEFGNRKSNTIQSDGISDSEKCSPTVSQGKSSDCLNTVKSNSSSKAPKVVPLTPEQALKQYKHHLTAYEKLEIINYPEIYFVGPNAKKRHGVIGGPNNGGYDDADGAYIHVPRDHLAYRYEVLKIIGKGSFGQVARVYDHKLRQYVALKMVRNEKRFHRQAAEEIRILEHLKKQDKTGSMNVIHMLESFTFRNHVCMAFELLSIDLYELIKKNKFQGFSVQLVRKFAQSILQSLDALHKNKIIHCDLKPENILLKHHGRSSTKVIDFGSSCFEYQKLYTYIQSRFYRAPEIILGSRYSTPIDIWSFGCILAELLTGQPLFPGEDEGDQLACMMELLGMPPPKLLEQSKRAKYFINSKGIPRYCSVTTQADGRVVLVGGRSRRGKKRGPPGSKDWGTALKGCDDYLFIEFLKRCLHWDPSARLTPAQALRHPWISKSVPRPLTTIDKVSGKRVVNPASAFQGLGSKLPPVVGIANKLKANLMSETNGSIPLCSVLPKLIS

[19] = target: PIM1 (Homo sapiens, UniProt P11309); assay: ICKP radiometric kinase assay; format: biochemical; settings: for remaining activity at 1 µM: read-out: % AR (% kinase activity remaining)
[20] = target: HIPK1 (Homo sapiens, UniProt Q86Z02); assay: ICKP radiometric kinase assay; format: biochemical; settings: read-out: % AR (% kinase activity remaining)
[21] = target: MAP4K3 (Homo sapiens, UniProt Q8IVH8); assay: ICKP radiometric kinase assay; format: biochemical; settings: read-out: % AR (% kinase activity remaining)
[22] = target: MAP4K5 (Homo sapiens, UniProt Q9Y4K4); assay: ICKP radiometric kinase assay; format: biochemical; settings: read-out: % AR (% kinase activity remaining)
[23] = target: OSR1 (Homo sapiens, UniProt O95747); assay: ICKP radiometric kinase assay; format: biochemical; settings: read-out: % AR (% kinase activity remaining)
[24] = target: SYK (Homo sapiens, UniProt P43405); assay: ICKP radiometric kinase assay; format: biochemical; settings: read-out: % AR (% kinase activity remaining)
[25] = target: EPH-A2 (Homo sapiens, UniProt P29317); assay: ICKP radiometric kinase assay; format: biochemical; settings: read-out: % AR (% kinase activity remaining)
[26] = target: EPH-B2 (Homo sapiens, UniProt P29323); assay: ICKP radiometric kinase assay; format: biochemical; settings: read-out: % AR (% kinase activity remaining)
[27] = tested on: MDA-MB-468; assay: Cell proliferation assay (CellTiter-Glo); settings: Homo sapiens
[28] = tested on: BT-549; assay: Cell proliferation assay (CellTiter-Glo); settings: Homo sapiens
[29] = tested on: ZR-75-1; assay: Cell proliferation assay (CellTiter-Glo); settings: Homo sapiens, ZR-75-1, 72 h, read-out: 3-day antiproliferative IC50
[30] = MDA-MB-468, 72 h, read-out: 3-day antiproliferative IC50
[31] = MDA-MB-468, 168 h, read-out: 7-day antiproliferative IC50
[32] = BT-549, 72 h, read-out: 3-day antiproliferative IC50
[33] = BT-549, 168 h, read-out: 7-day antiproliferative IC50

Sequence of PIM1 (P11309 whole entry, species assumed): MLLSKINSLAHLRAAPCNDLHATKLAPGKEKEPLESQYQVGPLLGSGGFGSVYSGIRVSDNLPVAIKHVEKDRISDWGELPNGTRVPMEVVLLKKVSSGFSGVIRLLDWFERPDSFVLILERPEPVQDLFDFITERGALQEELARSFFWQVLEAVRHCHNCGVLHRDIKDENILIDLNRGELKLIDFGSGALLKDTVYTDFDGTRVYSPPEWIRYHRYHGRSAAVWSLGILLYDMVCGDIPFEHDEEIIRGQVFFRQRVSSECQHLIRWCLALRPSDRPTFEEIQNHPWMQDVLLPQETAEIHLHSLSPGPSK
Sequence of ERK2 (P28482 whole entry): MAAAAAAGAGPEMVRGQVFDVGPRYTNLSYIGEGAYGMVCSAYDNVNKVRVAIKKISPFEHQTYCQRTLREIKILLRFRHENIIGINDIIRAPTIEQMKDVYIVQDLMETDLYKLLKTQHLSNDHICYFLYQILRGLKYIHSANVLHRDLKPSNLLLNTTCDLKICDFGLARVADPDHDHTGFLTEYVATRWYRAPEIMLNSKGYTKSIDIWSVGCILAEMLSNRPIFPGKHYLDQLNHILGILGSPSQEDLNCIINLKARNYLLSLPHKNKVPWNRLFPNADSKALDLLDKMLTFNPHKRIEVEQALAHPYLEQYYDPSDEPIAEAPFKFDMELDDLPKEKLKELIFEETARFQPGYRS
Sequence of HIPK1 (Q86Z02 whole entry): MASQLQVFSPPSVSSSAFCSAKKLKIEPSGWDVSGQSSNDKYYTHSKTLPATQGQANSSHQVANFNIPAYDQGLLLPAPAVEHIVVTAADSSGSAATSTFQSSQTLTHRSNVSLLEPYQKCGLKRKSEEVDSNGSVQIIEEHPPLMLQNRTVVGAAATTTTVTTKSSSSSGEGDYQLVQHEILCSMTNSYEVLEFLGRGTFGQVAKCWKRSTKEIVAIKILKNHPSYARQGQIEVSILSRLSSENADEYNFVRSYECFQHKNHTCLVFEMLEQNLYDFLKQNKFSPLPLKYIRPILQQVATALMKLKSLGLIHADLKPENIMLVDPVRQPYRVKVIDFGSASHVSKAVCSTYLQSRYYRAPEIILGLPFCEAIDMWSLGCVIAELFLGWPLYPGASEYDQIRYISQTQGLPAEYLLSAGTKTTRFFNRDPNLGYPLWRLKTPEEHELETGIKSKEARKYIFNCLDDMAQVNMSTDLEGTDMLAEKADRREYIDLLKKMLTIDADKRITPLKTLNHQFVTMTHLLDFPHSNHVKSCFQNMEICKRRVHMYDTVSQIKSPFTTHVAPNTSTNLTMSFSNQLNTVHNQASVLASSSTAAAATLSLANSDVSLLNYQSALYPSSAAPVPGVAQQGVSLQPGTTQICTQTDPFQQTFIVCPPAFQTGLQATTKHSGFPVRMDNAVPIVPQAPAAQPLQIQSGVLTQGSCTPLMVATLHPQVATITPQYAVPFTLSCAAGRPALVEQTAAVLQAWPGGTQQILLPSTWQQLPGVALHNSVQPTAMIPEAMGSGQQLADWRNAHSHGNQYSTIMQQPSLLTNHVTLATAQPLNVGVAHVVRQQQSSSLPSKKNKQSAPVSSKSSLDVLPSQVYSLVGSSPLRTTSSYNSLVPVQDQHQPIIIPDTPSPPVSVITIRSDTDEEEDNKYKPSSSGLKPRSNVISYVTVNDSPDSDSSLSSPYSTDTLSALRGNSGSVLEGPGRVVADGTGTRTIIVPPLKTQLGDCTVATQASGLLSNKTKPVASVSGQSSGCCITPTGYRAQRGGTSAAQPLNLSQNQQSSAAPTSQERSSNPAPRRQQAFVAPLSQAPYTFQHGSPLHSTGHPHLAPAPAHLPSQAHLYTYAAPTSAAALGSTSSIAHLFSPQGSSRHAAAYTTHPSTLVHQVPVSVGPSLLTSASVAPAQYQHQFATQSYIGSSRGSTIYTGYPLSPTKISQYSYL
Sequence of MAP4K3 (Q8IVH8 whole entry): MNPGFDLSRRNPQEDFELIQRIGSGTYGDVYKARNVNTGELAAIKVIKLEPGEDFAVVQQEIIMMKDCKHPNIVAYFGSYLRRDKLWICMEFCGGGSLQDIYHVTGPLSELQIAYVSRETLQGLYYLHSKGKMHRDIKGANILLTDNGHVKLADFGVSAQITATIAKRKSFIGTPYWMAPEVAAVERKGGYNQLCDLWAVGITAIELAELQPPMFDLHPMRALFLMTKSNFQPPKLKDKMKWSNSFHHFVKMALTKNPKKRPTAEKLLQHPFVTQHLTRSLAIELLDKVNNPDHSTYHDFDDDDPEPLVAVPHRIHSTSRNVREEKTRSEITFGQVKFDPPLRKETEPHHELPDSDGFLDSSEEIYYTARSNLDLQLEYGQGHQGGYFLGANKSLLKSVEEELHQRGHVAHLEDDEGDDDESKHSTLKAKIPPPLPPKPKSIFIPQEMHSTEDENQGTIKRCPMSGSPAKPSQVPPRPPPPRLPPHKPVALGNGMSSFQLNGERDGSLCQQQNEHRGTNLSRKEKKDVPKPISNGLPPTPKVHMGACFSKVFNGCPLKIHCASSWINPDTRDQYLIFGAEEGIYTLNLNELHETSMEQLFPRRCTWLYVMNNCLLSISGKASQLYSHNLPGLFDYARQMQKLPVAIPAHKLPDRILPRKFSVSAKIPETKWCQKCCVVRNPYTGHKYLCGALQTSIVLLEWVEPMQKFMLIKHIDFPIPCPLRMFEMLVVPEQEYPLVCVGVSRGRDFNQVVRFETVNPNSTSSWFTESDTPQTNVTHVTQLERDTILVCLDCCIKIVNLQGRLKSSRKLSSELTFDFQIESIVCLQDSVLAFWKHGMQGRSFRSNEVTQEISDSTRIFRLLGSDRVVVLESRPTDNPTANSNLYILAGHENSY
Sequence of TTBK1 (Q5TCY1 whole entry): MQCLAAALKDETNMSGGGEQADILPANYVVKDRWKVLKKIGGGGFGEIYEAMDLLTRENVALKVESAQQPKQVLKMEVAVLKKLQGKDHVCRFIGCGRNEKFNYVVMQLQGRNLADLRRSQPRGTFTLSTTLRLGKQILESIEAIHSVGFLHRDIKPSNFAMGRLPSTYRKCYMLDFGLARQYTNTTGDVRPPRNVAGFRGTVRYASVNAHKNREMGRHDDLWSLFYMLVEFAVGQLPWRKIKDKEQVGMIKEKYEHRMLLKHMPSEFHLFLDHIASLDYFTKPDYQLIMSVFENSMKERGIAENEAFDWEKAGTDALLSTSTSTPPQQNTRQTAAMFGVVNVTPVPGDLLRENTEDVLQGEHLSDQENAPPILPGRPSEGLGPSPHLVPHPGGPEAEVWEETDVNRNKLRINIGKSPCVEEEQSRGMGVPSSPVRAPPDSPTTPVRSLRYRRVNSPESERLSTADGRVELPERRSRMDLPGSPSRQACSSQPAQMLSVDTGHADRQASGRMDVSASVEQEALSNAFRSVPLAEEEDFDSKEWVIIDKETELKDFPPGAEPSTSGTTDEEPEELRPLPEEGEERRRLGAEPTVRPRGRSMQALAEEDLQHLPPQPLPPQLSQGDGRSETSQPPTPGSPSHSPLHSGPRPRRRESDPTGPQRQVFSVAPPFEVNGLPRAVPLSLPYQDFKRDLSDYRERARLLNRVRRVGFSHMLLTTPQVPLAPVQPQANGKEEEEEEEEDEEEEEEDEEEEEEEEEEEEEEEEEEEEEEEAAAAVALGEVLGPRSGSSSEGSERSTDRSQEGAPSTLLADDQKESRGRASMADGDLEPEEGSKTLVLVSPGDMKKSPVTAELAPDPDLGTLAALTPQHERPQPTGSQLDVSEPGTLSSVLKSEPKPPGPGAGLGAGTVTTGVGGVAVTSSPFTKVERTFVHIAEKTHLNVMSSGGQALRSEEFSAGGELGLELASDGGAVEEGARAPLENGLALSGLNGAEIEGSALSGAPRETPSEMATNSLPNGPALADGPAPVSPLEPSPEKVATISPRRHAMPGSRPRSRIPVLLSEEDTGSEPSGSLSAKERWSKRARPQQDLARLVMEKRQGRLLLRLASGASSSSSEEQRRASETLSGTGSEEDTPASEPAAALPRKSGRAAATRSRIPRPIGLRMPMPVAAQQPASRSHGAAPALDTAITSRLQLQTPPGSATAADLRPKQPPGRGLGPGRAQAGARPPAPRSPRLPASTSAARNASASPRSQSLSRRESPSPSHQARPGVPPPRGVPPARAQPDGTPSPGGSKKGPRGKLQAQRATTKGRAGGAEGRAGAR
Sequence of PKC zeta (Q05513 whole entry): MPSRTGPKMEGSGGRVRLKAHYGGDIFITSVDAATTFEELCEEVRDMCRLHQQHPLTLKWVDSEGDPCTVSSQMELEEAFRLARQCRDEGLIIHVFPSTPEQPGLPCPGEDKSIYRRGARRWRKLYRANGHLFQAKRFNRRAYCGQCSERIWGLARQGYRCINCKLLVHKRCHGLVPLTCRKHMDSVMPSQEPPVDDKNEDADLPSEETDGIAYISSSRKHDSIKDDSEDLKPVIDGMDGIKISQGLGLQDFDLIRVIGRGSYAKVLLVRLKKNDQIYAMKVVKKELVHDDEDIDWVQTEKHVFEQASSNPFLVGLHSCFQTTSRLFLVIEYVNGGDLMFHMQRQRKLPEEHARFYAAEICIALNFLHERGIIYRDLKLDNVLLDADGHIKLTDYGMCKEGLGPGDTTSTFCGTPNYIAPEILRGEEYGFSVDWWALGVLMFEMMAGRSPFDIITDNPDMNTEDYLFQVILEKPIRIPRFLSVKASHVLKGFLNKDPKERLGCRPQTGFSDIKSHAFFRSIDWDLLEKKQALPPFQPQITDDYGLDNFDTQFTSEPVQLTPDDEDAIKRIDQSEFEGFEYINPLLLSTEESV
Sequence of Aurora B (Q96GD4 whole entry): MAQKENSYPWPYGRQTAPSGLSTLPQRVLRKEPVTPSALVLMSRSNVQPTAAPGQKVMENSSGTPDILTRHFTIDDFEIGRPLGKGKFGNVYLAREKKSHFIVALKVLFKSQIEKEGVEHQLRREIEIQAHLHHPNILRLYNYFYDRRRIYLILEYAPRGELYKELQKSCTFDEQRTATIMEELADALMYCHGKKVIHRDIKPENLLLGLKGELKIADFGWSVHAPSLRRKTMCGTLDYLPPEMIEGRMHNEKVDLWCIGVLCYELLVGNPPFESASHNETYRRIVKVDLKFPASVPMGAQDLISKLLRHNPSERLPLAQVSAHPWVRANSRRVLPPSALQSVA

Row | Compound | IC50 [1] [nM] | remaining activity at 1 µM [3] [%] | remaining activity at 1 µM [4] [%] | remaining activity at 1 µM [5] [%] | remaining activity at 1 µM [6] [%] | remaining activity at 1 µM [7] [%] | remaining activity at 1 µM [8] [%] | remaining activity at 1 µM [9] [%] | remaining activity at 1 µM [10] [%] | remaining activity at 1 µM [11] [%] | remaining activity at 1 µM [12] [%] | remaining activity at 1 µM [13] [%] | remaining activity at 1 µM [14] [%] | remaining activity at 1 µM [15] [%] | remaining activity at 1 µM [16] [%] | remaining activity at 1 µM [17] [%] | remaining activity at 1 µM [18] [%] | remaining activity at 1 µM [19] [%] | remaining activity at 1 µM [20] [%] | remaining activity at 1 µM [21] [%] | further results
1 | CC(=O)c1cnc2ccc(-c3cc(Cl)c(O)c(Cl)c3)nc2c1N[C@H]1CC[C@H](CN(C)C)CC1 [OTSSP167] | 35.7 | 3 | 10 | 90 | 28 | 7 | 1 | 19 | 2 | 14 | 2 | 2 | 6 | 82 | 91 | 1 | 1 | 10 | 0 | 1 | IC50 ([2]; 72 h, most cell lines tested, read-out: half maximal killing): < 100 nM; remaining activity at 1 µM [22]: 3%; remaining activity at 1 µM [23]: 45%; remaining activity at 1 µM [24]: 7%; remaining activity at 1 µM [25]: 7%; remaining activity at 1 µM [26]: 1%; IC50 [27, 30]: 14 nM; IC50 [27, 31]: 12 nM; IC50 [28, 32]: 21 nM; IC50 [28, 33]: 9 nM; IC50 [29]: 55 nM
2 | CN(C)C[C@H]1CC[C@H](N2C(=O)NCc3cnc4ccc(-c5cc(Cl)c(O)c(Cl)c5)cc4c32)CC1 [HTH-01-091, 9-(3,5-dichloro-4-hydroxyphenyl)-1-(trans-4-((dimethylamino)methyl)cyclohexyl)-3,4-dihydropyrimido[5,4 c]quinolin-2(1H)-one] | 632 | 62 | 75 | 93 | 101 | 79 | 71 | 96 | 91 | 35 | 125 | 79 | 36 | 103 | 86 | 18 | 5 | 1 | 24 | 55 | antiproliferative IC50 values, fold less potent than OTSSP167 [2]: at least 300 fold; IC50 ([18]; radioactive filter-binding assay provided by the ICKP, read-out: Enzymatic IC50 DYRK3): 41.8 nM; IC50 ([19]; radioactive filter-binding assay provided by the ICKP, read-out: Enzymatic IC50 PIM1): 60.6 nM; remaining activity at 1 µM [22]: 32%; remaining activity at 1 µM [23]: 93%; remaining activity at 1 µM [24]: 112%; remaining activity at 1 µM [25]: 66%; remaining activity at 1 µM [26]: 70%; IC50 [27, 30]: 4000 nM; IC50 [27, 31]: 2710 nM; IC50 [28, 32]: 6160 nM; IC50 [28, 33]: 2820 nM; IC50 [29]: > 10000 nM
